# Test results as given in patent US20250115571A1, “OXOPIPERAZINE DERIVATIVES” (Inthera Bioscience AG, priority 2017, published 2025).
# How the values were obtained:
# Assay in all cases: 5-day cell proliferation assay (CTG)
# Assay type in all cases: cell-based
# A549 = conditions: Homo sapiens, 120 h, A549, Lung
# Outline: (§1)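 Growth inhibition was determined as GI50, derived by fitting a sigmoidal dose-response curve to percent-of-untreated-control luminescence. Cells grew five days with compound at 37 °C before CellTiter-Glo addition; a separate plate read at day 0 gave baseline density.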
# Caco-2 = conditions: Homo sapiens, 120 h, Caco-2, Colorectal
# Outline: as §1
# DU145 = conditions: Homo sapiens, DU-145, 120 h, DU145, Prostate
# Outline: as §1
# Daudi = conditions: Homo sapiens, 120 h, Lymphoma
# Outline: as §1
# H4 = conditions: Homo sapiens, 120 h, H4, Brain/Nerves
# Outline: as §1
# HT-3 = conditions: Homo sapiens, 120 h, HT-3, Cervix
# Outline: as §1
# Hep G2 = conditions: Homo sapiens, HepG2, 120 h, Hep G2, Liver
# Outline: as §1
# KARPAS-422 = conditions: Homo sapiens, 120 h, KARPAS-422, Lymphoma
# Outline: as §1
# KYSE-270 = conditions: Homo sapiens, 120 h, KYSE-270, Oesophagus
# Outline: as §1
# MIA PaCa-2 = conditions: Homo sapiens, 120 h, MIA PaCa-2, Pancreas
# Outline: as §1
# MKN-1 = conditions: Homo sapiens, 120 h, MKN-1, Stomach/Gastric
# Outline: as §1
# MKN-45 = conditions: Homo sapiens, 120 h, MKN-45, Stomach/Gastric
# Outline: as §1
# MOLM-13 = conditions: Homo sapiens, 120 h, MOLM-13, Leukemia
# Outline: as §1
# OVCAR-4 = conditions: Homo sapiens, 120 h, OVCAR-4, Ovary
# Outline: as §1
# PANC-1 = conditions: Homo sapiens, 120 h, PANC-1, Pancreas
# Outline: as §1
# PC-3 = conditions: Homo sapiens, 120 h, PC-3, Prostate
# Outline: as §1
# SK-MEL28 = conditions: Homo sapiens, SK-MEL-28, 120 h, SK-MEL28, Skin
# Outline: as §1
# U937 = conditions: Homo sapiens, U-937, 120 h, U937, Leukemia
# Outline: as §1
# WM-266-4 = conditions: Homo sapiens, 120 h, WM-266-4, Skin
# Outline: as §1
structure (smiles),measurement,setting,value
"CC(C)C[C@@H]1NCCN([C@@H](CC(C)C)C(=O)N2CCC3(C[C@@H]2C)OCC(CN2CCCC2)CO3)C1=O (stereo partly drawn) [Compound 258, (3S)-1-[(2S)-4-methyl-1-oxo-1-[(3s,6s,8S)-8-methyl-3-(pyrrolidin-1-ylmethyl)-1,5-dioxa-9-azaspiro[5.5]undec-an-9-yl]pentan-2-yl]-3-(2-methylpropyl)piper-azin-2-one (^≠), isomer Z]",GI50,A549,10 nM
same,GI50,Caco-2,10 nM
same,GI50,DU145,7 nM
same,GI50,Daudi,80 nM
same,GI50,H4,11 nM
same,GI50,HT-3,330 nM
same,GI50,Hep G2,6 nM
same,GI50,KARPAS-422,48 nM
same,GI50,KYSE-270,44 nM
same,GI50,MIA PaCa-2,11 nM
same,GI50,MKN-1,2 nM
same,GI50,MKN-45,4 nM
same,GI50,MOLM-13,4 nM
same,GI50,OVCAR-4,12 nM
same,GI50,PANC-1,22 nM
same,GI50,PC-3,13 nM
same,GI50,SK-MEL28,50 nM
same,GI50,U937,22 nM
same,GI50,WM-266-4,41 nM
